Laboratory results: ChEMBL document CHEMBL3885861, “Open TG-GATES”

Species on record: Rattus norvegicus
Assay: Open TG-GATES - Regimen: Single
Assay type: toxicity, organism-based, Sprague-Dawley
Parameters: regimen Single, gender Male, age 6 weeks
Conditions: in vivo, po, 0 mg/kg, route gavage, dose level Control; for APTT / Bas / Eos / Fbg / Hb / Ht / Lym / MCH / MCHC / MCV / Mono / Neu / PT / Plat / RBC / Ret / WBC: tissue Blood; for KIDNEY_L / KIDNEY_R / KIDNEY_TOTAL: tissue Kidney; for LIVER: tissue Liver; for A/G / ALP / ALT / AST / BUN / CRE / Ca / Cl / DBIL / GLC / IP / K / LDH / Na / PL / RALB / TBIL / TC / TG / TP / gamma-GTP: tissue Plasma

## COc1ccc(Cl)cc1C(=O)NCCc1ccc(S(=O)(=O)NC(=O)NC2CCCCC2)cc1 [GLYBURIDE]
3 h
  TERMINAL_BW: 216 g
  APTT: 19.2 s
  Bas: 0%
  Eos: 1%
  Fbg: 221.2 mg/dL
  Hb: 13.2 g/dL
  Ht: 40.6%
  Lym: 70.4%
  MCH: 21 pg
  MCHC: 32.4%
  MCV: 64.7 fL
  Mono: 3%
  Neu: 24.4%
  PT: 12.3 s
  Plat: 125.5 x10_4/uL
  RBC: 628.8 x10_4/ul
  Ret: 8%
  WBC: 84.1 x10_2/uL
  KIDNEY_L: 1 g
  KIDNEY_R: 1 g
  KIDNEY_TOTAL: 1.9 g
  LIVER: 10.1 g
  A/G: 1.7
  ALP: 1085 IU/L
  ALT: 41.8 IU/L
  AST: 70.8 IU/L
  BUN: 11.8 mg/dL
  CRE: 0.4 mg/dL
  Ca: 11 mg/dL
  Cl: 104 meq/L
  DBIL: 0.2 mg/dL
  GLC: 191.6 mg/dL
  IP: 8.8 mg/dL
  K: 3.8 meq/L
  LDH: 166.6 IU/L
  Na: 141 meq/L
  PL: 187.6 mg/dL
  RALB: 3.5 g/dL
  TBIL: 0.2 mg/dL
  TC: 88 mg/dL
  TG: 160.2 mg/dL
  TP: 5.6 g/dL
  gamma-GTP: 0.8 IU/L
6 h
  TERMINAL_BW: 212.5 g
  APTT: 19.8 s
  Bas: 0%
  Eos: 1%
  Fbg: 228.6 mg/dL
  Hb: 13.6 g/dL
  Ht: 42.2%
  Lym: 70.2%
  MCH: 20.1 pg
  MCHC: 32.2%
  MCV: 62.4 fL
  Mono: 3.4%
  Neu: 24.2%
  PT: 12.5 s
  Plat: 122.5 x10_4/uL
  RBC: 676.8 x10_4/ul
  Ret: 7.8%
  WBC: 87.5 x10_2/uL
  KIDNEY_L: 1 g
  KIDNEY_R: 1 g
  KIDNEY_TOTAL: 2 g
  LIVER: 9.5 g
  A/G: 1.6
  ALP: 1140.4 IU/L
  ALT: 35 IU/L
  AST: 67.4 IU/L
  BUN: 8.8 mg/dL
  CRE: 0.4 mg/dL
  Ca: 10.9 mg/dL
  Cl: 103 meq/L
  DBIL: 0.092 mg/dL
  GLC: 207.2 mg/dL
  IP: 9.8 mg/dL
  K: 3.6 meq/L
  LDH: 159.4 IU/L
  Na: 141.2 meq/L
  PL: 148.6 mg/dL
  RALB: 3.5 g/dL
  TBIL: 0.2 mg/dL
  TC: 77.2 mg/dL
  TG: 65.2 mg/dL
  TP: 5.6 g/dL
  gamma-GTP: 1 IU/L
9 h
  TERMINAL_BW: 213.3 g
  APTT: 19.1 s
  Bas: 0%
  Eos: 1%
  Fbg: 220 mg/dL
  Hb: 13 g/dL
  Ht: 39.7%
  Lym: 77%
  MCH: 20.8 pg
  MCHC: 32.7%
  MCV: 63.6 fL
  Mono: 2.2%
  Neu: 18.8%
  PT: 12.7 s
  Plat: 133.8 x10_4/uL
  RBC: 625.4 x10_4/ul
  Ret: 8.1%
  WBC: 102.8 x10_2/uL
  KIDNEY_L: 0.9 g
  KIDNEY_R: 0.9 g
  KIDNEY_TOTAL: 1.9 g
  LIVER: 8.8 g
  A/G: 1.7
  ALP: 1066.8 IU/L
  ALT: 30.8 IU/L
  AST: 61.6 IU/L
  BUN: 10.8 mg/dL
  CRE: 0.4 mg/dL
  Ca: 10.1 mg/dL
  Cl: 102.2 meq/L
  DBIL: 0.09 mg/dL
  GLC: 216.2 mg/dL
  IP: 11.1 mg/dL
  K: 3.5 meq/L
  LDH: 125.8 IU/L
  Na: 140.8 meq/L
  PL: 137.4 mg/dL
  RALB: 3.4 g/dL
  TBIL: 0.1 mg/dL
  TC: 72.8 mg/dL
  TG: 52.2 mg/dL
  TP: 5.4 g/dL
  gamma-GTP: 1.6 IU/L
24 h
  TERMINAL_BW: 226.7 g
  APTT: 18.3 s
  Bas: 0.4%
  Eos: 1%
  Fbg: 218.6 mg/dL
  Hb: 13.2 g/dL
  Ht: 38%
  Lym: 77%
  MCH: 21.7 pg
  MCHC: 34.7%
  MCV: 62.4 fL
  Mono: 2.4%
  Neu: 18.6%
  PT: 12.5 s
  Plat: 126.2 x10_4/uL
  RBC: 609.6 x10_4/ul
  Ret: 7.7%
  WBC: 105.9 x10_2/uL
  KIDNEY_L: 1 g
  KIDNEY_R: 1 g
  KIDNEY_TOTAL: 2 g
  LIVER: 10.9 g
  A/G: 1.5
  ALP: 1024.2 IU/L
  ALT: 32.2 IU/L
  AST: 61.4 IU/L
  BUN: 16.4 mg/dL
  CRE: 0.4 mg/dL
  Ca: 10.7 mg/dL
  Cl: 102.2 meq/L
  DBIL: 0.1 mg/dL
  GLC: 215.6 mg/dL
  IP: 7.5 mg/dL
  K: 3.7 meq/L
  LDH: 189.6 IU/L
  Na: 141.2 meq/L
  PL: 146.2 mg/dL
  RALB: 3.3 g/dL
  TBIL: 0.2 mg/dL
  TC: 73.2 mg/dL
  TG: 97.8 mg/dL
  TP: 5.4 g/dL
  gamma-GTP: 1.4 IU/L
